# Experiments:
# fat cell = test: Fat cell size in obesity-induced ob/ob mouse model (H&E staining); format: in vivo; details: ob/ob mice, oral 2.5 mg/kg, 42 days; vs saline group, p<0.005
# Source text: (§1) 6-week-old male ob/ob mice were selected. Weight gain was induced by a general diet for 6 weeks. Then, the effect of the PPB prepared in Example 1 was investigated.
# (§2) Particularly, the mice were adapted to the animal room environment for 1 week. Then, the mice were divided into two groups, which were fed with a general diet for 42 days (6 weeks). These two groups were the control (saline group) that was fed with a general diet and orally administered with saline and the experimental group (PPB group) that was fed with a general diet and orally administered with PPB at the dose of 2.5 mg/kg.
# The adipose tissues were obtained from the mice of the control group and the PPB-treated experimental group prepared in Example <4-1>, and the changes of fat cell size were observed.
# Particularly, the adipose tissues obtained from the mice of the control and experimental groups were made into a paraffin block, which was sectioned in the thickness of 7 μm, followed by hematoxylin-eosin staining (H&E staining). The stained tissues were photographed with Axio Imager Z1 upright microscopy system and the cell size was measured by using ImageJ 1.50i software.
# liver tissue = test: Fat accumulation in liver tissue of ob/ob mouse (Oil-red-O); format: in vivo; details: ob/ob mice, oral 2.5 mg/kg, 42 days; vs saline group, p<0.005
# Source text: as §1, §2
# The liver tissues were obtained from the mice of the control group and the experimental group prepared in Example <4-1>. The obtained liver tissues were made into a frozen block, which was sectioned in the thickness of 10 μm. The tissue sections were stained with 0.375% (w/v) Oil-red-O powder. The stained tissues were photographed with Axio Imager Z1 upright microscopy system and the fat accumulation area was measured by using ImageJ 1.50i software.
# [1] = tested on: mouse-derived vascular endothelial cells (SVEC4-10); test: PPB in vascular endothelial cell death model (palmitic acid), MTT assay; format: cell-based; details: 0.25 mM palmitic acid, 24 hours
# Protocol: Mouse-derived vascular endothelial cells (SVEC4-10) in DMEM (Dulbecco's Modified Eagle Medium) supplemented with 10% fetal bovine serum and 1% antibiotics (penicillin/streptomycin) were cultured in a 37° C., 5% CO2 incubator. To obtain sufficient cells, the cells were cultured in 100 Ø plastic dishes. When the cells were cultured until the bottom of the dish was covered 80% by the cells, the adhered cells were detached using trypsin/EDTA solution and then sub-cultured.
# The mouse-derived vascular endothelial cells (SVEC4-10) obtained in Example <5-1> were treated with 0.25 mM palmitic acid, leading to the construction of a vascular endothelial cell death model (in vitro).
# The cells were treated with PPB at different concentrations for 24 hours. 24 hours later, MTT assay was performed to confirm the number of survived cells. From the result, the effect of PPB on the survival of vascular endothelial cells in the presence of palmitic acid was analyzed.
# [2] = tested on: Plasminogen activator inhibitor type-1 (PAI-1); test: Plasma PAI-1 level in ob/ob mouse by ELISA kit; format: in vivo; details: ob/ob mice, oral 2.5 mg/kg, 42 days; compared with saline control group
# Source text: as §1, §2
# In order to measure PAI-1, the biomarker for improving blood circulation, blood was collected from the mouse, and the plasma PAI-1 level was measured by using an ELISA kit.
compound,measurement,setting,value
"Oc1cc(O)cc(Oc2c(O)cc(Oc3cc(O)cc(Oc4c(O)cc(O)c5c4Oc4c(O)cc(O)c(-c6c(O)cc(O)c7c6Oc6c(O)cc(O)c(Oc8cc(O)cc(O)c8)c6O7)c4O5)c3)cc2O)c1 [PPB, pyrogallol-phloroglucinol-6,6-bieckol]",fat cell size,fat cell,significantly decreased
same,fat accumulation area in liver tissue,liver tissue,significantly decreased
same,number of survived cells,"[1]; 5 ug/ml, vs control non-treated with PPB",not much different
same,survival rate of vascular endothelial cells,[1]; 10 ug/ml,significantly increased
same,blood PAI-1 level,[2],reduced

# — patent US20190142886A1, “Ecklonia cava extract and a pharmaceutical composition for preventing or treating vascular diseases comprising the same as an active ingredient” (Gachon University of Industry-Academic Cooperation …, priority 2017, published 2019)
